Values quoted from earlier work, collected in patent US11696883B2, “Compositions for reducing hair loss and/or increasing hair regrowth” (Triple Hair Inc., priority 2014, dated 2023).
Where two headings read alike, the source gives them in different places.

Tests used:
[1] = latanoprost in ophthalmology use
hair loss = conditions: topical
[2] = tested on: prostaglandin endoperoxide synthase-1 (PGHS-1); conditions: Michelet et al. 1997

Row | solubility (in 0.1N HCl and 0.1N NaOH) | solubility (in chloroform, DMSO, ethanol, methanol, n-propanol) | solubility (in propylene glycol, polyethylene glycol 400) | solubility (in water) | solubility (in acetone, ethanol, ethyl acetate, isopropanol, methanol and octanol) | solubility (in acetonitrile) | SMILES | other adverse effects [1] | side effects [1] | effective in promoting regrowth of the hair (hair loss) | activation of purified PGHS-1 [2]
1 | very slightly soluble | freely soluble | sparingly soluble | not soluble |  |  | CC(C)(C)NC(=O)[C@H]1CC[C@H]2[C@@H]3CC[C@H]4NC(=O)C=C[C@]4(C)[C@H]3CC[C@]12C [Finasteride, (5α,17β)-N-(1,1-Dimethylethyl)-3-oxo-4-azaandrost-1-ene-17-carboxamide] |  |  |  | 
2 |  |  |  | practically insoluble | freely soluble | very soluble | CC(C)OC(=O)CCC/C=C\C[C@@H]1[C@@H](CC[C@@H](O)CCc2ccccc2)[C@H](O)C[C@@H]1O [Latanoprost] | erythema, folliculitis, sensation of burning and erysipelas | augmentation of periocular hirsuteness |  | 
3 |  |  |  |  |  |  | Nc1cc(N2CCCCC2)nc(N)[n+]1[O-] [Minoxidil, 6-(1-pipedidinyl)-2,4-pyrimidinediamine 3-oxide] |  |  | less than 40% | potent activator
